Measurements taken from PubChem BioAssay (NCI).
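Cultured in 96-well plates, cells were exposed to test compound for 48 hours across five concentrations. GI50 is the concentration that inhibits growth by half. TGI marks complete inhibition of growth.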

Legend:
Test in all cases: inhibition of tumour cell growth, NCI panel, 48 h
[1] = test system: OVCAR-3 ovarian
[2] = test system: UACC-62 melanoma
[3] = test system: UACC-257 melanoma
[4] = test system: SW-620 colon
[5] = test system: IGROV1 ovarian
[6] = test system: A498 renal
[7] = test system: MDA-MB-231 breast
[8] = test system: HL-60(TB) leukemia
[9] = test system: K-562 leukemia
[10] = test system: HOP-92 NSCLC

Structure (SMILES)	GI50 [1] [µM]	TGI [1] [µM]	GI50 [2] [µM]	TGI [2] [µM]	GI50 [3] [µM]	TGI [3] [µM]	GI50 [4] [µM]	TGI [4] [µM]	GI50 [5] [µM]	TGI [5] [µM]	GI50 [6] [µM]	TGI [6] [µM]	GI50 [7] [µM]	TGI [7] [µM]	GI50 [8] [µM]	TGI [8] [µM]	GI50 [9] [µM]	TGI [9] [µM]	GI50 [10] [µM]	TGI [10] [µM]
COC1=C(C)C(=O)c2c(c(CCCl)c3n2CCC3O)C1=O (stereo not given)	2.19	6.72	0.319	1.28	0.839	3.45	1.09	15.8	2.59	12.4	0.145	0.313	21.8	83	3.34	30.4	2.21	> 40.7	6.21	24.7
CCOc1cc(Br)c(C(C)NC(=O)c2cccc(OC)c2)cc1OCC (stereo not given)	5.42	38.7	6.61	> 100	22.5	> 100	4.6	> 100	22.3	> 100	0.866	25.5	8.59	> 100	3.8	> 61.3	3.6	> 100	8.97	> 83.5
CN(COC(=O)c1ccccc1)c1nc(N(C)COC(=O)c2ccccc2)nc(N(C)COC(=O)c2ccccc2)n1	–	> 100	–	> 100	–	> 100	–	> 100	–	> 100	–	40.8	–	53.4	–	> 100	–	> 100	–	63.1
O=[N+]([O-])c1ccc(C2CC(c3ccccc3Cl)=Nc3ccccc3S2=O)cc1 (stereo not given)	–	8.12	–	6.73	–	48.3	–	3.91	–	8.57	–	6.03	–	5.29	–	3.63	–	4.57	–	31.5
ON(Cc1ccccc1)C(=S)c1ccccc1	–	> 67	–	25.4	–	39.4	–	> 100	–	> 100	–	> 100	–	> 100	–	7.75	–	> 100	–	> 100
Cc1cc2cc3ccc(N(C)C)cc3nc2cc1N	0.502	2.45	0.744	2.71	1.12	3.04	0.334	1.92	0.528	2.9	0.433	2.05	1.12	2.88	0.805	5.09	0.418	> 21	1.14	4.69
CCN(Cc1ccc(F)cc1)c1ccc(CO)c(C)c1	11.1	24.1	1.19	6.87	2.92	15	14.5	54.1	1.25	6.16	0.216	1.14	16.6	35.7	9.86	39.3	9.03	> 72.5	8.45	27
CCCCCCNC(=O)Oc1ccc(/C(=C(/C)Cc2ccc(OC)cc2)c2ccc(OCCCN(C)C)cc2)cc1	15.2	29.3	16.6	30.4	19.3	35.3	16.4	31.2	16.3	32.7	14.1	27.3	15.3	29.9	10.5	24.9	3.74	19.1	9.99	22.4
Cc1ccc(C(NC(=O)c2ccccc2)c2ccc3cccnc3c2O)cc1 (stereo not given)	0.351	18.2	0.236	0.763	0.293	2.58	0.431	> 43.5	0.352	4.95	0.376	7.88	0.315	22.4	0.288	1	0.349	90	0.145	11.7
N#Cc1c(Br)n(C2OC(CO)C(O)C2O)c2ncnc(N)c12 (stereo not given)	1.6	34.1	2.64	6.09	4.72	38.5	0.74	32.7	0.333	1.76	2.64	20.9	3.82	> 79.9	0.608	2.59	1.07	> 47.4	0.738	4.02
CC1=CC(=O)C(C(C)C)=CC1=Nc1cc(Br)c(O)c(Br)c1	2.68	7.47	2.86	13.1	14.7	33.1	4.18	15.4	4.68	20.2	3.81	19.6	3.65	12.9	3.48	8.5	3.92	13.4	11.5	40.8
CC(C)(C)c1ccc(OC(=O)Nc2ccc(O)c(C(=O)O)c2)cc1	–	> 100	–	> 100	–	> 100	–	> 100	–	> 100	–	> 100	–	> 100	–	> 100	–	> 100	–	> 100
Cn1nc(-c2ccc(Cl)cc2)nc2c(=O)n(C)c(=O)nc1-2	0.275	1.2	0.745	1.68	0.794	1.54	1.4	6.46	0.842	3.67	0.949	2.24	1.28	7.34	1.11	3.69	1.17	3.22	1.72	4.99
O=[N+]([O-])c1ccc(Oc2nc(Nc3ccc(O[C@H]4CO[C@H]5[C@@H]4OC[C@@H]5O)c(Cl)c3)ncc2F)c(Cl)c1	1.4	5.83	0.843	2.27	1.78	4.27	1.38	12.6	0.493	2.77	0.669	2.38	1.6	7.39	1.53	4.11	1.31	13.3	0.807	2.65
CCN1C(=O)CCCc2c1ccc(Nc1ncc(Cl)c(NC3[C@@H](C(N)=O)[C@@H]4C=C[C@H]3C4)n1)c2OC (stereo not given in full)	2.14	10.6	0.933	2.59	0.839	4.34	0.564	3.48	1.46	3.96	0.529	2.65	1.95	14.4	0.667	5.46	2.16	> 74.6	0.276	2.26
O=C(O)c1cn(C2CC2)c2cc(N3CCN(C(=O)Nc4nc(-c5ccccc5)cs4)CC3)c(F)cc2c1=O	0.582	16.5	0.67	8.52	2.37	7.58	3.2	> 100	1.2	> 100	1.06	7.08	2.3	9.94	1.62	4.41	2.05	> 100	1.13	5.99
Oc1ccc(-c2nc3ccc4[nH]ncc4c3c3c2CCCC3)c(F)c1	2.89	7.85	1.67	4.37	1.84	5.34	1.41	8.29	2.8	12.4	2.25	6.51	2.79	10.5	2.93	8.82	2.71	21	2.07	9.8
Cc1ccc(/C=C2\CN(C(=O)C(Cl)Cl)C/C(=C\c3ccc(C)cc3)C2=O)cc1	0.209	0.483	0.237	0.632	0.346	3.16	0.0554	0.234	0.18	0.367	0.203	0.79	0.337	1.57	0.25	1.33	0.142	> 100	1.47	3.95
COc1cccc2c1-c1c(c3ccc([N+](=O)[O-])cc3c(=O)n1CCCN)C2=O	2.3	5.71	1.89	7.95	17.9	44.4	0.459	3.2	0.289	1.99	15.7	32.8	1.68	3.41	1.62	3.93	0.218	1.12	5.64	13.3
